This is an account of results in patent US20060241073A1, “Means and methods for counteracting fatty acid accumulation” (priority 2005, published 2006).

Where two headings read alike, the source gives them in different places. Where only a bound is given, the exact number is not on record here.

Series [1] concerns phytanic acid omega-hydroxylase (cytochrome P450) of rat liver microsomes. Nature of the series: Phytanic acid omega-hydroxylation in rat liver microsomes (formation of omega-hydroxyphytanic acid, GC/MS). In kind it is biochemical. To be noted: for effect on the formation of omega-hydroxyphytanic acid: different concentrations of imidazole derivatives (FIG. 4A). The protocol: (§1) To this end, Male Wistar rats fed a standard laboratory diet, were fasted overnight before sacrifice and removal of the liver. The livers were rapidly chilled and washed several times in buffer containing 250 mM sucrose, 0.5 mM EDTA, 2 mM MOPS/KOH (final pH 7.4). Subsequently, the livers were minced and homogenized with a Potter S homogenizer (B. Braun, Germany) with a teflon pestle at 500 rpm (5 strokes), followed by centrifugation of the homogenate for 10 min at 550×g. The obtained post-nuclear supernatant was subjected to centrifugation at 22,500×g for 10 min to remove mitochondria and lysosomes. Finally, the microsomal fraction was obtained by centrifugation of the supernatant for 3 h at 32,000×g. The microsomal pellet fraction was taken up in PBS containing 5 mM DTT and divided into small aliquots, which were stored at −80° C. The microsomes were sonicated 3 times for 10 s at 8 Watt before each experiment.
The standard reaction mixture consisted of 100 mM potassium phosphate buffer pH 7.4 and rat liver microsomes (1 mg/ml end concentration) plus phytanic acid dissolved in DMSO (200 μM end concentration, unless indicated otherwise). Reactions were initiated by addition of NADPH at a final concentration of 1 mM. The final reaction volume was 0.2 ml. Reactions were terminated by addition of 0.2 ml 1 M HCl. […] The internal standard (IS, 10 nmol 3-hydroxyheptadecanoic acid in 20 μl ethanol) was added to this aqueous mixture. The samples were extracted twice with 6 ml ethylacetate-diethylether (1:1 v/v). The organic layer was collected and the solvents evaporated under vacuum using a rotary evaporator at room temperature. The residue was dissolved in 4 ml ethylacetate and further dried with MgSO4. After spinning down the MgSO4, the solution was transferred to 4 ml reaction vials and the solvent evaporated under nitrogen. […] TMS ester/ether formation was performed with 40 μl N,O-bis-(trimethylsilyl)trifluoroacetamide (BSTFA) containing 1% trimethylchlorosilane (TMCS) and 10 μl pyridine. The vials were sealed with a Teflon-lined screwcap and incubated at 80° C. for 1 hour. After the incubation the solution could be directly used for GC-MS analysis.
The identity of the substrate, the internal standard, and the reaction product(s) was verified by taking mass spectra of the pertrimethylsilylated derivatives in the scanning electron impact mode.
Based on the experiments described above, I selected the following assay conditions: 0,75 mg/ml methyl-beta-cyclodextrin, 100 mM potassium phosphate (pH 7.6), 1 mM NADPH, and 200 μM phytanic acid. Under these conditions, formation of omega-hydroxyphytanic acid was linear with time up to 60 min, and with protein up to 1 mg/ml (data not shown).
FIG. 4. […] Rat liver microsomes were incubated with phytanic acid in the presence of different concentrations of imidazole derivatives. The inhibitory effect of the imidazole derivatives on the formation of omega-hydroxyphytanic acid (omega-HPA; A) and (omega-1)-hydroxyphytanic acid (B) is shown. The data shown represent means of duplicate experiments.
(In general: Microsomes from liver hold many membrane-bound enzymes, among them those of drug oxidation.)

Series [2] relates to phytanic acid omega-hydroxylase (cytochrome P450) of pooled human liver microsomes. The series can be described thus: Phytanic acid omega-hydroxylation in pooled human liver microsomes (formation of omega-hydroxyphytanic acid, GC/MS). To be noted: for effect on the formation of omega-hydroxyphytanic acid / Km: pooled human liver microsomes; for effect on the formation of omega-hydroxyphytanic acid: different concentrations of imidazole derivatives (FIG. 7A). Here is the method: (§2) Reactions were initiated by adding NADPH (final concentration 1 mM) and terminated by addition of 0.1 ml 1 M HCl. […] After addition of the internal standard (IS, 2 nmol 3-hydroxyheptadecanoic acid in 20 μl ethanol) the samples were extracted twice with 6 ml ethylacetate-diethylether (1:1 v/v). The organic layers were collected and the solvents evaporated. The residue was dissolved in 4 ml ethylacetate and further dried with anhydrous MgSO4 and again evaporated. […] TMS ester/ether formation was performed by incubating the samples with 40 μl BSTFA containing 1% TMCS and 10 μl pyridine at 80° C. for 1 hour. After the incubation the solution was directly used for GC-MS analysis.
(§3) FIG. 7. […] Pooled human liver microsomes were incubated with phytanic acid in the presence of different concentrations of imidazole derivatives. […] The data shown represent means of duplicate experiments.

The subject of series [3] is phytanic acid omega-hydroxylase (cytochrome P450). Nature of the series: in vitro. To be noted: human, pH 7.7. The protocol:
as §2, §3

The test system of series [4] is phytanic acid (omega-1)-hydroxylase (cytochrome P450). The series can be described thus: in vitro. To be noted: human, pH 7.7. The protocol:
as §2, §3

Series [5] has as its system phytanic acid (omega-1)-hydroxylase (cytochrome P450) of rat liver microsomes. Nature of the series: Phytanic acid (omega-1)-hydroxylation in rat liver microsomes (formation of (omega-1)-hydroxyphytanic acid, GC/MS). The following applies: different concentrations up to 100 μM (FIG. 4B). It counts as biochemical. The protocol:
as §1
The standard reaction mixture consisted of 100 mM potassium phosphate buffer pH 7.4 and rat liver microsomes (1 mg/ml end concentration) plus phytanic acid dissolved in DMSO (200 μM end concentration, unless indicated otherwise). Reactions were initiated by addition of NADPH at a final concentration of 1 mM. The final reaction volume was 0.2 ml. Reactions were terminated by addition of 0.2 ml 1 M HCl. […]

A word on the IC50: it is the concentration that inhibits the measured activity by half. Turning to `c1ccc(-c2ccc(C(c3ccccc3)n3ccnc3)cc2)cc1` (stereo not drawn) [Bifonazole], the “effect on the formation of omega-hydroxyphytanic acid” value in series [1] was “most potent inhibitor”; in series [2], “inhibit product formation”. The IC50 is 13 µM in series [3] and under 2 µM in series [4].
For `Clc1ccc(COC(Cn2ccnc2)c2ccc(Cl)cc2Cl)c(Cl)c1` (stereo not drawn) [Miconazole], the “effect on the formation of omega-hydroxyphytanic acid” value in series [1] is “inhibited”; in series [2], “inhibit product formation”. In series [5], the “effect on the formation of (omega-1)-hydroxyphytanic acid” value was “most potent inhibitor”. Further, the IC50 in series [3] was 30 µM; in series [4] it was under 2 µM.
`Clc1ccccc1C(c1ccccc1)(c1ccccc1)n1ccnc1` [Clotrimazole]: the “effect on the formation of omega-hydroxyphytanic acid” value is given as “inhibited” in series [1] and “inhibit product formation” in series [2]. Besides, in series [5], the “effect on the formation of (omega-1)-hydroxyphytanic acid” value is “stimulatory effect at low concentrations with little inhibition at the highest concentrations used”. Also, the half-inhibitory concentration (IC50) was determined as 43 µM in series [3] and 3 µM in series [4].
The term Km denotes the substrate concentration at which the rate is half of its maximum. In the case of `CC(C)CCCC(C)CCCC(C)CCCC(C)CC(=O)O` (stereo not drawn) [phytanic acid, 3,7,11,15-tetramethylhexadecanoic acid], the Michaelis constant (Km) in series [1] (fixed molar ratio phytanic acid/methyl-beta-cyclodextrin (FIG. 3D), read-out: apparent Km for phytanic acid) was 114 ± 9 µM; in series [2] (read-out: apparent Km for phytanic acid, estimated as substrate concentration with half maximal omega-hydroxylation activity (FIG. 6D)) it was 80 µM. The “ratio omega:(omega-1) hydroxylated products” value is recorded as 2.2±0.2 in series [1] (four separate experiments) and 15.4±0.7 in series [2] (pooled human microsomes, four separate experiments).
Consider `NC(=O)C1=CN([C@@H]2O[C@H](COP(=O)(O)OP(=O)(O)OC[C@H]3O[C@@H](n4cnc5c(N)ncnc54)[C@H](OP(=O)(O)O)[C@@H]3O)[C@@H](O)[C@H]2O)C=CC1` [NADPH], for which the Km in series [1] (NADPH regenerating system, Lineweaver-Burke plot (FIG. 3C), read-out: apparent Km for NADPH) turned out to be 35 µM; in series [2] (read-out: Km for NADPH, NADPH-regenerating system, Lineweaver Burke plot (FIG. 6C), means of duplicate experiments) it was 2 µM.
Turning to `CC(=O)N1CCN(c2ccc(OCC3COC(Cn4ccnc4)(c4ccc(Cl)cc4Cl)O3)cc2)CC1` (stereo not drawn) [Ketoconazole], in series [1], the “effect on the formation of omega-hydroxyphytanic acid” value is “inhibited”.
